Here are results for 11 compounds from US20140066394A1, “Substituted 6-(Benzylamino) Purine Riboside Derivatives, Use Thereof and Compositions Containing These Derivatives” (Biopatterns, S.R.O, priority 2009, published 2014).

The structures appear in SMILES notation.

Assay [1] concerns promyelocytic HL-60 leukemia. Nature of the assay: In vitro cytotoxicity, Calcein AM assay, HL60. It counts as cell-based, human. The source says: (§1) Low cytotoxicity of the compounds is the major property determining the cosmetic use. One of the parameters used, as the basis for cytotoxicity assays, is the metabolic activity of viable cells. For example, a microtiter assay, which uses the Calcein AM, is now widely used to quantitate cell proliferation and cytotoxicity. For instance, this assay is used in drug screening programs and in chemosensitivity testing. Because only metabolically active cells cleave Calcein AM, these assays detect viable cells exclusively. The quantity of […] Calcein AM corresponds to the number of vital cells in the culture.
(§2) Human T-lymphoblastic leukemia cell line CEM; promyelocytic HL-60 and monocytic U937 leukemias; breast carcinoma cell lines MCF-7, BT549, MDA-MB-231; glioblastoma U87MG cells; cervical carcinoma cells HELA; sarcoma cells U2OS and Saos2; hepatocellular carcinoma HepG2; mouse fibroblasts NIH3T3; mouse immortalized bone marrow macrophages B2.4 and B10A.4; P388D1 and L1210 leukemia; B16 and B16F10 melanomas; human osteosarcoma HOS; human myeloid leukemia K-562; human skin melanoma G-361 were used for routine screening of compounds. The cells were maintained in Nunc/Corning 80 cm^2 plastic tissue culture flasks and cultured in cell culture medium (DMEM with 5 g/l glucose, 2 mM glutamine, 100 U/mL penicillin, 100 μg/mL streptomycin, 10% fetal calf serum and sodium bicarbonate).
(§3) The cell suspensions that were prepared and diluted according to the particular cell type and the expected target cell density (2.500-30.000 cells per well based on cell growth characteristics) were added by pipette ([…]) into 96/well microtiter plates. Inoculates were allowed a pre-incubation period of 24 hours at 37° C. and 5% CO2 for stabilisation. Four-fold dilutions of the intended test concentration were added at time zero in 20 μl aliquots to the microtiter plate wells. Usually, the compound tested was evaluated at six 4-fold dilutions. In routine testing, the highest well concentration was 100 μM, but it can be the matter of change dependent on the agent. All drug concentrations were examined in duplicates. Incubations of cells with the tested compounds lasted for 72 hours at 37° C., in 5% CO2 atmosphere and 100% humidity. At the end of the incubation period, the cells were assayed by using Calcein AM. Ten microliters of the stock solution were pipetted into each well and incubated for 1 hour. Fluorescence (FD) was measured with the Labsystem FIA Reader Fluoroscan Ascent (UK). The tumour cell survival (GI50) was calculated using the following equitation: TCS=(FDdrug exposed well/mean FDeontrol wells)×100%. The GI50 value, the drug concentration lethal to 50% of the tumour cells, was calculated from the obtained dose response curves.
(§4) Zero cytotoxicity of the novel compounds is the basic prerequisite for agricultural and tumor-unrelated applications. The cytoxicity of the novel compounds was tested on a panel of cell lines of different histogenetic and species origin (Table 9). We show herein that equal activities were found in all tumour cell lines tested, however, the non-malignant cells, e.g. NIH3T3 fibroblasts and normal human lymphocytes, were resistant to 2,6-disubstituted purine ribosides induced cytotoxicity. The compounds listed in Tab. 9 can be divided into 2 groups. The first group contains “classical cytokinins” represented by 6-substituted purine ribosides (which are known in the prior art). The second group contains the novel 2,6-disubstituted derivatives of these compounds. […] GI50 for NIH3T3 fibroblasts and normal human lymphocytes was always higher than 100 μM. The novel derivatives show no toxicity to normal and tumour cells in concentrations about 100 μM and thus are more suitable for agricultural applications than “classical cytokinins” (6-substituted purine riboside derivatives).

For assay [2], the system named is human myeloid leukemia K-562. Put plainly: In vitro cytotoxicity, Calcein AM assay, K-562. The assay is classed as cell-based.
Description: as §1, §2, §3, §4

The test system of assay [3] is breast carcinoma cell line MCF-7. Nature of the assay: In vitro cytotoxicity, Calcein AM assay, MCF7. The assay is classed as cell-based, human.
Description: as §1, §2, §3, §4

For assay [4], the system named is human skin melanoma G-361. Put plainly: In vitro cytotoxicity, Calcein AM assay, G-361. The assay is classed as cell-based.
Description: as §1, §2, §3, §4

For assay [5], the system named is Human T-lymphoblastic leukemia cell line CEM. Put plainly: In vitro cytotoxicity, Calcein AM assay, CEM. It counts as cell-based. Conditions: 72 hours.
Description: as §1, §2, §3, §4

Another assay has as its system human osteosarcoma HOS. Put plainly: In vitro cytotoxicity, Calcein AM assay, HOS. The assay is classed as cell-based. Conditions: 72 hours.
Description: as §1, §2, §3, §4

Another assay deals with β-adrenergic receptors. Put plainly: Isoproterenol-induced cAMP synthesis in rat C6 glioma (anti-inflammatory activity). The assay is classed as cell-based. As to conditions: for Effect (modulation of isoproterenol-induced cAMP synthesis): added simultaneously with (−)-isoproterenol; for IC50: cellular cAMP by enzyme immunoassay, dose-response curve in duplicate, read-out: I50. How it is done:
Anti-inflammatory activity of several of the 2-substituted 6-benzylaminopurine riboside derivatives of this invention was determined; kinetin riboside was also evaluated as a control. Rat C6 glioma (ATCC No. CCL107) was cultivated in monolayer in serum-free chemically defined medium containing Ham's F10/minimal essential medium (1:1 v/v), 2 mM L-glutamine, 1% (v/v) minimal essential medium vitamins (100×), 1% (v/v) minimal essential medium nonessential amino acids (100×), 100 U/mL penicillin, […], and 30 nM sodium selenite. Incubation was performed at 37° C. in a humidified atmosphere. The assays were performed in the logaritmic growth phase at a density of 2.5×10^5 cells/cm^2.
Intracellular cAMP synthesis was induced by addition of 5 mM (−)-isoproterenol; various amounts of test compounds were added at the same time as the (−)-isoproterenol. After […] incubation at 37° C., the medium was removed and the cellular amount of cAMP was determined using the cAMP-enzyme immunoassay kit from Amersham. The I50 value was determined from a dose-response curve in duplicate. The effect of nine purine analogues was measured after simultaneous addition with isoproterenol.
As P2Y1-like and A2 purinergic receptors, negatively and positively coupled to adenylate cyclase respectively, are present on rat C6 glioma as to be determined if the modulation of the synthesis of cAMP is due to inhibition of the activation of β-adrenergic receptors by isoproterenol are due to activation of purinergic receptors.

Assay [6] has as its system cytokinin-dependent tobacco callus Nicotiana tabacum L. cv. Wisconsin 38. Nature of the assay: Tobacco callus bioassay (stimulation of plant cell division). It counts as cell-based. How it is done: Cytokinin-dependent tobacco callus Nicotiana tabacum L. cv. Wisconsin 38 was maintained at 25° C. in darkness on modified MS medium, containing per 1 liter: 4 μmol of nicotinic acid, 2.4 μmol of pyridoxine hydrochloride, 1.2 μmol of thiamine, 26.6 μmol of glycine, 1.37 μmol of glutamine, 1.8 μmol of myo-inositol, 30 g of sucrose, 8 g of agar, 5.37 μmol of NAA and 0.5 μmol of the compound tested. Subcultivation was carried out every three weeks. Fourteen days before the bioassay, the callus tissue was transferred to the media without the compound tested. The biological activity was determined from the increase of the fresh callus weight after four weeks of cultivation. Five replicates were prepared for each concentration of the compound tested and the entire test was repeated twice. From the obtained data, the concentration with the highest activity was selected for each compound tested. Relative activity of the compound at this concentration was calculated (Table 8). The compounds to be tested were dissolved in dimethylsulfoxide (DMSO) and the solution brought up to 10^−3M with distilled water. […] The compounds listed in Table 8 are compared to a “classical cytokinin” kinetin riboside (compound known in the prior art—C=control).

For orientation: GI50 means the concentration at which growth is held to half of that of the control. With `COc1c(O)cccc1CNc1ncnc2c1ncn2[C@@H]1O[C@H](CO)[C@@H](O)[C@H]1O` [2-methoxy-3-hydroxybenzylamino, reference compound], the GI50 in assay [1] (72 hours) was 10 µM; in assay [2] (72 hours), 16.5 µM; in assay [3] (72 hours), greater than 100 µM; in assay [4] (72 hours), greater than 100 µM; in assay [5] it was 1.9 µM; in the assay on human osteosarcoma HOS it was greater than 100 µM.
For the compound `COc1ccc(CNc2ncnc3c2ncn3[C@@H]2O[C@H](CO)[C@@H](O)[C@H]2O)c(O)c1` [2-hydroxy-4-methoxybenzylamino, reference compound], the GI50 in assay [1] (72 hours) was 0.15 µM; in assay [2] (72 hours) it was 28 µM; in assay [3] (72 hours), 20 µM; in assay [4] (72 hours), greater than 100 µM; in assay [5] it was 0.3 µM; with human osteosarcoma HOS, greater than 100 µM.
As for `COc1ccc(CNc2nc(Cl)nc3c2ncn3C2OC(CO)C(O)C2O)c(O)c1` (centres unmarked) [Compound 11], the GI50 (in assay [1] (72 hours); in assay [2] (72 hours); in assay [3] (72 hours); in assay [4] (72 hours); in assay [5]; in the assay on human osteosarcoma HOS) was greater than 100 µM each time.
As to `OCC1OC(n2cnc3c(NCc4cc(F)ccc4O)nc(Cl)nc32)C(O)C1O` (centres unmarked) [Compound 30], the GI50 in assay [1] (Homo sapiens, HL-60, 72 hours) is greater than 100 µM; in assay [2] (Homo sapiens, K562, 72 hours) it was greater than 100 µM; in assay [3] (Homo sapiens, MCF7, 72 hours), greater than 100 µM; in assay [4] (Homo sapiens, G-361, 72 hours), greater than 100 µM; in assay [5] (Homo sapiens), greater than 100 µM; in the assay on human osteosarcoma HOS (Homo sapiens) it was greater than 100 µM. Moreover, the “Effect (modulation of isoproterenol-induced cAMP synthesis)” value (“Effect” below) in the assay on β-adrenergic receptors is listed as “inhibition”. Moreover, the IC50 in the assay on β-adrenergic receptors came out at 15.7 ± 4 µM. Also, the “concentration with highest activity” value in assay [6] (increase of fresh callus weight after four weeks, tested 10^−8 M to 10^−4 M) is 10^−6 mol · l^−1. Also, the “activity (%) [10^−5 mol · l^−1 C = 100%]” value in assay [6] (relative activity at the concentration with highest activity, kinetin riboside at 10^−5 mol/l = 100%) is 108.6 (±3) %.
As to `OC[C@H]1O[C@@H](n2cnc3c(NCc4cc(Cl)ccc4O)nc(Cl)nc32)[C@H](O)[C@@H]1O` [Compound 29, 2-Chloro-6-(2-hydroxy-5-chlorobenzylamino)purine riboside], the GI50 (in assay [1] (72 hours); in assay [2] (72 hours); in assay [3] (72 hours); in assay [4] (72 hours); in assay [5]; in the assay on human osteosarcoma HOS) was greater than 100 µM each time. Also, in the assay on β-adrenergic receptors, the “Effect” value is “inhibition”. In addition, on β-adrenergic receptors, the IC50 was 12.4 ± 2 µM.
With `Cc1ccc(O)c(CNc2ncnc3c2ncn3C2OC(CO)C(O)C2O)c1` (centres unmarked) [2-hydroxy-5-methylbenzylamino, reference compound], the GI50 is 10 µM in assay [1] (72 hours); 18 µM in assay [2] (72 hours); 6.9 µM in assay [3] (72 hours); greater than 100 µM in assay [4] (72 hours); 0.9 µM in assay [5]; greater than 100 µM in the assay on human osteosarcoma HOS.
For the compound `OC[C@H]1O[C@@H](n2cnc3c(NCc4cc(F)ccc4O)ncnc32)[C@H](O)[C@@H]1O` [2-hydroxy-5-fluorobenzylamino, reference compound], the GI50 is 24 µM in assay [1] (72 hours); greater than 100 µM in assay [2] (72 hours); greater than 100 µM in assay [3] (72 hours); greater than 100 µM in assay [4] (72 hours); 52 µM in assay [5]; greater than 100 µM with human osteosarcoma HOS.
In the case of `COc1cccc(CNc2ncnc3c2ncn3C2OC(CO)C(O)C2O)c1O` (centres unmarked) [2-hydroxy-3-methoxybenzylamino, reference compound], the GI50 is 9.5 µM in assay [1] (72 hours); greater than 100 µM in assay [2] (72 hours); greater than 100 µM in assay [3] (72 hours); greater than 100 µM in assay [4] (72 hours); 40 µM in assay [5]; greater than 100 µM with human osteosarcoma HOS.
Turning to `OCC1OC(n2cnc3c(NCc4cc(Cl)ccc4O)ncnc32)C(O)C1O` (centres unmarked) [2-hydroxy-5-chlorobenzylamino, reference compound], the 50% growth inhibitory concentration (GI50) in assay [1] (72 hours) was 1.6 µM; in assay [2] (72 hours), 36 µM; in assay [3] (72 hours) it was 32 µM; in assay [4] (72 hours), greater than 100 µM; in assay [5] it was 2.4 µM; with human osteosarcoma HOS, greater than 100 µM.
Consider `Cc1cccc(CNc2nc(Cl)nc3c2ncn3C2OC(CO)C(O)C2O)c1O` (centres unmarked) [Compound 13], for which the GI50 (in assay [1] (72 hours); in assay [2] (72 hours); in assay [3] (72 hours); in assay [4] (72 hours); in assay [5]; in the assay on human osteosarcoma HOS) was greater than 100 µM each time. Further, the “Effect” value in the assay on β-adrenergic receptors is reported as “inhibition”. Moreover, on β-adrenergic receptors, the IC50 worked out at 18.7 ± 4 µM.
Turning to `COc1c(O)cccc1CNc1nc(Cl)nc2c1ncn2C1OC(CO)C(O)C1O` (centres unmarked) [Compound 21], the GI50 (in assay [1] (72 hours); in assay [2] (72 hours); in assay [3] (72 hours); in assay [4] (72 hours); in assay [5]; with human osteosarcoma HOS) was greater than 100 µM in each case.
